Test results as given in US12377155B2, “Bicyclic peptide ligands specific for PSMA” (BicycleRD Limited, priority 2018, dated 2025).

Target: PSMA (Homo sapiens, UniProt Q04609)
Experiment: PSMA binding, fluorescence polarization assay
Conditions: as shown in Table 1
Protocol: PSMA binding was measured using the fluorescence polarization assay methodology described in Shen et al (2013) PLOS ONE 8(7), […] and PSMA enzyme inhibition was measured using the methodology described in WO 2009/070302.
The peptide ligands of the invention were tested in the above mentioned PSMA binding and enzyme inhibition assays and the results are shown in Table 1: […]

PSMA, sequence (Q04609 whole entry): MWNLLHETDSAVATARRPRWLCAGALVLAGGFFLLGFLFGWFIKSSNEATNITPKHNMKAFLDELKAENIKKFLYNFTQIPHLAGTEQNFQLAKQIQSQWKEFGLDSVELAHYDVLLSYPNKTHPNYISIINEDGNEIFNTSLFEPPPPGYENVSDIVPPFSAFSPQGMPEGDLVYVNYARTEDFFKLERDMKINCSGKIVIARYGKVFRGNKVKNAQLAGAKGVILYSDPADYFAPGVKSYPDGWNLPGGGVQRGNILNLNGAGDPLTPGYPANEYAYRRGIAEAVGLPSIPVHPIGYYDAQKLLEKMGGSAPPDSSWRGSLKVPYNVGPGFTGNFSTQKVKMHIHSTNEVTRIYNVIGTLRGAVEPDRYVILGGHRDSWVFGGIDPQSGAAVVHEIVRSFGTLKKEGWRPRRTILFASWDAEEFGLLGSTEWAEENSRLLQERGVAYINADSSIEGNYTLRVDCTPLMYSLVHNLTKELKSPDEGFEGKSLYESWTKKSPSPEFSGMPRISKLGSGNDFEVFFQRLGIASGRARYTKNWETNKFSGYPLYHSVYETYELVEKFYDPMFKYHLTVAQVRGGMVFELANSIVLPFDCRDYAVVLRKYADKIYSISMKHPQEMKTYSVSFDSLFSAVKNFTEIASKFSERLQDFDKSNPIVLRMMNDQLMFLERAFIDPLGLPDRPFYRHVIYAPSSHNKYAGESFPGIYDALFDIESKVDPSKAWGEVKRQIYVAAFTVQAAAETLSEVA

Substance	PSMA binding (statement in words)
Ac-(D-E)VCWDCFM(Nle)EDGTCA-Sar6-(D-K) [21-31-04-T01-N009]	superior PSMA binding
EVCWDCFMMEDGTCA [21-31-04-T01-N001]	superior PSMA binding
FCSECYMMEDGTCA [21-31-11-T01-N001]	superior PSMA binding
LCMECYMMEDGTCA [21-31-12-T01-N001]	superior PSMA binding
